According to paper PMC12587545, “Noncytotoxic polymyxin derivatives enhance antibiotic action against multidrug-resistant Gram-negative bacteria” (Antimicrobial Agents and Chemotherapy, 2025):
Values joined by “and” are separate entries in the source; they are usually repeats but may differ in a detail not shown here. Identical values can stand only once.

Tests used:
[1] = test system: P. aeruginosa; assay: Checkerboard assay (antibiotic potentiation); type: cell-based, Pseudomonas aeruginosa; details: for MICantibiotic: antibiotic alone
Protocol: (§1) The interaction between the compounds and the antibiotics was evaluated using the fractional inhibitory concentration (FIC) index. FIC indices of ≤0.5 is synergistic, 0.5 < × ≤ 4 is additive, whereas >4 is antagonistic ([34]).
(§2) Synergy was measured by the FIC index, which is the summation of the individual FICs of the antibiotic and the compound. The FIC is calculated by dividing the MIC of one agent in the presence of another by the MIC of the agent alone. […] The FBS studies were conducted by following a previously published protocol ([29], [50]). The FBS was inactivated by heating at 56°C for 30 min with constant swirling.

[2] = test system: A. baumannii; assay: Checkerboard assay (antibiotic potentiation); type: cell-based, Acinetobacter baumannii; details: for MICantibiotic: antibiotic alone
Protocol: (§3) The interaction between the compounds and the antibiotics was evaluated using the fractional inhibitory concentration (FIC) index. FIC indices of ≤0.5 is synergistic, 0.5 < × ≤ 4 is additive, whereas >4 is antagonistic ([34]). […] .
(§4) The bacterial isolates were acquired from ATCC or the Canadian Ward Surveillance (CANWARD) study ([56]). CANWARD isolates were collected from infected patients admitted to participating medical centers across Canada.
(§5) The antibiotic and compounds were serially diluted 2-fold in CAMHB along the x- and y-axis, respectively, on a 96-well plate that was subsequently incubated with equal volumes of bacterial inoculum overnight at 37°C. Wells containing only media were used as negative controls, and wells containing only bacteria were used as positive controls. Synergy was measured by the FIC index, which is the summation of the individual FICs of the antibiotic and the compound. The FIC is calculated by dividing the MIC of one agent in the presence of another by the MIC of the agent alone. Turbidity was confirmed with a Molecular Devices (United States) EMax Plus microplate reader at a wavelength of 590 nm. The FBS studies were conducted by following a previously published protocol ([29], [50]). The FBS was inactivated by heating at 56°C for 30 min with constant swirling.

[3] = test system: E. coli; assay: Checkerboard assay (antibiotic potentiation); type: cell-based, Escherichia coli; details: for Interpretation: antibiotic + compound 1; for MICantibiotic + compound: antibiotic MIC with 8 µg/mL (5 µM) compound 1; for MICantibiotic: antibiotic alone; for Potentiation: of antibiotic by 8 µg/mL (5 µM) compound 1
Protocol: as §1, §2

[4] = test system: K. pneumoniae; assay: Checkerboard assay (antibiotic potentiation); type: cell-based, Klebsiella pneumoniae; details: for Interpretation: antibiotic + compound 1; for MICantibiotic: antibiotic alone; for Potentiation: of antibiotic by 8 µg/mL (5 µM) compound 1
Protocol: as §1, §2

[5] = test system: E. cloacae; assay: Checkerboard assay (antibiotic potentiation); type: cell-based, Enterobacter cloacae; details: E. cloacae 121887 (colistin-resistant)
Protocol: as §3, §4, §5

[6] = test system: MDR Gram-negative bacteria clinical isolates; assay: Checkerboard assay, summary over strains; type: cell-based; details: of all 14 clinical isolates; number (%)
Protocol: as §1, §5

[7] = E. coli 94393 (colistin-resistant)
[8] = E. coli 94474 (colistin-resistant)
[9] = K. pneumoniae 113250 (colistin-resistant)

CC(C)(O/N=C(\C(=O)N[C@@H]1C(=O)N2C(C(=O)[O-])=C(C[n+]3ccccc3)CS[C@H]12)c1csc(N)n1)C(=O)O [Ceftazidime]
Interpretation ([1]; P. aeruginosa 259-96916, antibiotic + compound 1): Synergy (FIC indices of ≤0.5 is synergistic)
MICantibiotic + compound ([1]; P. aeruginosa 259-96916, antibiotic MIC with 8 µg/mL (5 µM) compound 1): 16 µg/mL
MICantibiotic ([1]; P. aeruginosa 259-96916): 512 µg/mL
Potentiation ([1]; P. aeruginosa 259-96916, of antibiotic by 8 µg/mL (5 µM) compound 1): 32 fold
Interpretation ([1]; P. aeruginosa 262-101856, antibiotic + compound 1): Synergy (FIC indices of ≤0.5 is synergistic)
MICantibiotic + compound ([1]; P. aeruginosa 262-101856, antibiotic MIC with 8 µg/mL (5 µM) compound 1): 4 µg/mL
MICantibiotic ([1]; P. aeruginosa 262-101856): 16 µg/mL
Potentiation ([1]; P. aeruginosa 262-101856, of antibiotic by 8 µg/mL (5 µM) compound 1): 4 fold
Interpretation ([1]; P. aeruginosa 264-105354, antibiotic + compound 1): Synergy (FIC indices of ≤0.5 is synergistic)
MICantibiotic + compound ([1]; P. aeruginosa 264-105354, antibiotic MIC with 8 µg/mL (5 µM) compound 1): 16 µg/mL
MICantibiotic ([1]; P. aeruginosa 264-105354): 128 µg/mL
Potentiation ([1]; P. aeruginosa 264-105354, of antibiotic by 8 µg/mL (5 µM) compound 1): 8 fold
Interpretation ([1]; P. aeruginosa 101243 (colistin-resistant), antibiotic + compound 1): Additive (0.5 < × ≤ 4 is additive)
MICantibiotic + compound ([1]; P. aeruginosa 101243 (colistin-resistant), antibiotic MIC with 8 µg/mL (5 µM) compound 1): 256 µg/mL
MICantibiotic ([1]; P. aeruginosa 101243 (colistin-resistant)): 512 µg/mL
Potentiation ([1]; P. aeruginosa 101243 (colistin-resistant), of antibiotic by 8 µg/mL (5 µM) compound 1): 2 fold
Interpretation ([1]; P. aeruginosa 114228 (colistin-resistant), antibiotic + compound 1): Additive (0.5 < × ≤ 4 is additive)
MICantibiotic + compound ([1]; P. aeruginosa 114228 (colistin-resistant), antibiotic MIC with 8 µg/mL (5 µM) compound 1): 8 µg/mL
MICantibiotic ([1]; P. aeruginosa 114228 (colistin-resistant)): 8 µg/mL
Potentiation ([1]; P. aeruginosa 114228 (colistin-resistant), of antibiotic by 8 µg/mL (5 µM) compound 1): 1 fold
Interpretation ([1]; P. aeruginosa PAO1, antibiotic + compound 1): Synergy (FIC indices of ≤0.5 is synergistic)
Interpretation ([1]; P. aeruginosa PAO1, antibiotic + compound 3): Additive (0.5 < × ≤ 4 is additive)
MICantibiotic + compound ([1]; P. aeruginosa PAO1, antibiotic MIC with 8 µg/mL (5 µM) compound 1): 0.5 µg/mL
MICantibiotic + compound ([1]; P. aeruginosa PAO1, antibiotic MIC with 8 µg/mL (5 µM) compound 3): 4 µg/mL
MICantibiotic ([1]; P. aeruginosa PAO1): 4 µg/mL and 2 µg/mL
Potentiation ([1]; P. aeruginosa PAO1, of antibiotic by 8 µg/mL (5 µM) compound 1): 4 fold
Potentiation ([1]; P. aeruginosa PAO1, of antibiotic by 8 µg/mL (5 µM) compound 3): 1 fold
Interpretation ([2]; A. baumannii 92247 (colistin-resistant), antibiotic + compound 1): Additive (0.5 < × ≤ 4 is additive)
MICantibiotic + compound ([2]; A. baumannii 92247 (colistin-resistant), antibiotic MIC with 4 µg/mL (2 µM) compound 1): 4 µg/mL
MICantibiotic ([2]; A. baumannii 92247 (colistin-resistant)): 8 µg/mL
Potentiation ([2]; A. baumannii 92247 (colistin-resistant), of antibiotic by 4 µg/mL (2 µM) compound 1): 2 fold
Interpretation ([2]; A. baumannii 110193, antibiotic + compound 1): Synergy (FIC indices of ≤0.5 is synergistic)
MICantibiotic + compound ([2]; A. baumannii 110193, antibiotic MIC with 4 µg/mL (2 µM) compound 1): 64 µg/mL
MICantibiotic ([2]; A. baumannii 110193): 256 µg/mL
Potentiation ([2]; A. baumannii 110193, of antibiotic by 4 µg/mL (2 µM) compound 1): 4 fold
Interpretation ([2]; A. baumannii AB027, antibiotic + compound 1): Additive (0.5 < × ≤ 4 is additive)
MICantibiotic + compound ([2]; A. baumannii AB027, antibiotic MIC with 4 µg/mL (2 µM) compound 1): 1024 µg/mL
MICantibiotic ([2]; A. baumannii AB027): 2048 µg/mL
Potentiation ([2]; A. baumannii AB027, of antibiotic by 4 µg/mL (2 µM) compound 1): 2 fold
MICantibiotic + compound ([2]; A. baumannii AB031, antibiotic MIC with 4 µg/mL (2 µM) compound 1): >64 µg/mL
MICantibiotic ([2]; A. baumannii AB031): >64 µg/mL
Interpretation ([2]; A. baumannii ATCC 17978, antibiotic + compound 1): Synergy (FIC indices of ≤0.5 is synergistic)
Interpretation ([2]; A. baumannii ATCC 17978, antibiotic + compound 3): Additive (0.5 < × ≤ 4 is additive)
MICantibiotic + compound ([2]; A. baumannii ATCC 17978, antibiotic MIC with 8 µg/mL (5 µM) compound 3): 4 µg/mL
MICantibiotic + compound ([2]; A. baumannii ATCC 17978, antibiotic MIC with ¼ MIC (≤5 µM) of compound 1): 1 µg/mL
Potentiation ([2]; A. baumannii ATCC 17978, of antibiotic by 8 µg/mL (5 µM) compound 3): 1 fold
Potentiation ([2]; A. baumannii ATCC 17978, of antibiotic by ¼ MIC (≤5 µM) of compound 1): 16 fold
Interpretation [3, 7]: Additive (0.5 < × ≤ 4 is additive)
MICantibiotic + compound [3, 7]: 0.5 µg/mL
MICantibiotic [3, 7]: 0.5 µg/mL
Potentiation [3, 7]: 1 fold
Interpretation [3, 8]: Additive (0.5 < × ≤ 4 is additive)
MICantibiotic + compound [3, 8]: 0.25 µg/mL
MICantibiotic [3, 8]: 0.5 µg/mL
Potentiation [3, 8]: 2 fold
Interpretation [4, 9]: Additive (0.5 < × ≤ 4 is additive)
MICantibiotic + compound ([4]; K. pneumoniae 113250 (colistin-resistant), antibiotic MIC with 8 µg/mL (5 µM) compound 1): 0.5 µg/mL
MICantibiotic [4, 9]: 0.5 µg/mL
Potentiation [4, 9]: 1 fold
Interpretation ([4]; K. pneumoniae 116381): Synergy (FIC indices of ≤0.5 is synergistic)
MICantibiotic ([4]; K. pneumoniae 116381): 8 µg/mL
Potentiation ([4]; K. pneumoniae 116381): 64 fold
Interpretation ([5]; antibiotic + compound 1): Additive (0.5 < × ≤ 4 is additive)
MICantibiotic + compound ([5]; antibiotic MIC with 8 µg/mL (5 µM) compound 1): 0.25 µg/mL
MICantibiotic ([5]; antibiotic alone): 0.25 µg/mL
Potentiation ([5]; of antibiotic by 8 µg/mL (5 µM) compound 1): 1 fold
clinical isolates in which the antibiotic was synergized by compound 1 [6]: 5 (36%) strains
